Values quoted from earlier work, collected in patent publication US9180154B2, “Method of manufacturing magnoliidae compounds” (Arizona Health Consulting Group, LLC, priority 2009, dated 2015).

Experiments:
[1] = system: D1-type and D2-type DA receptor; settings: D1-type versus D2-type DA receptor
D1 receptors = target: T1, D1 receptors (Rattus norvegicus, UniProt P18901); settings: rats with unilateral nigral lesion (DA receptor super sensitivity in striatum)
T1 construct: from tissue; host or cells: rats with unilateral nigral lesion (in vivo; striatum mentioned)
T1 sequence (P18901 whole entry): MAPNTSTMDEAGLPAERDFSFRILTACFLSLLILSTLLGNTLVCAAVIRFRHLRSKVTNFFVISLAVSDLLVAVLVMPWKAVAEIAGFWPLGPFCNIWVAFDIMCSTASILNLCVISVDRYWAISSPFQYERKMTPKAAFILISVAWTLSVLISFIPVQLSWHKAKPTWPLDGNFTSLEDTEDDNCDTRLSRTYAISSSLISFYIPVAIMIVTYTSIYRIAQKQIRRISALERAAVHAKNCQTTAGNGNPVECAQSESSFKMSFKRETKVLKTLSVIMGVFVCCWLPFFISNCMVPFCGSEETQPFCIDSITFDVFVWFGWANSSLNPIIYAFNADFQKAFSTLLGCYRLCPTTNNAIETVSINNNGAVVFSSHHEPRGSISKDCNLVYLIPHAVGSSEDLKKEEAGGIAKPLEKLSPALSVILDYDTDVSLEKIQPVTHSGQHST

D2 receptor = target: T2, D2 receptor (Rattus norvegicus, UniProt P61169)
T2 construct: from tissue; host or cells: normal rats (in vivo; tissue not specified)
T2 sequence (P61169 whole entry): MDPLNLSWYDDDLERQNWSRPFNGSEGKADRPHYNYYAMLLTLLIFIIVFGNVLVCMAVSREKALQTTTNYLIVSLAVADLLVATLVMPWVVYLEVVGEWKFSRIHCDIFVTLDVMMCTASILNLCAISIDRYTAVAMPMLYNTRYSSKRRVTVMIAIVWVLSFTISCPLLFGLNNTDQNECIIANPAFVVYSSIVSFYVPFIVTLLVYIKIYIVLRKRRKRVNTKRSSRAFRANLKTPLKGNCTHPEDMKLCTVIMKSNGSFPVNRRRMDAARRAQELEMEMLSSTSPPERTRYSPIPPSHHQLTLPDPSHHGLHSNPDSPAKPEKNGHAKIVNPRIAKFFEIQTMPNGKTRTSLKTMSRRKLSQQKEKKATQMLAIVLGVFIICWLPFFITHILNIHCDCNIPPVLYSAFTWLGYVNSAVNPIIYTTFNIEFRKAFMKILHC

receptor action in lesioned rats (D1 receptors)	Structure (SMILES)	effect on D1-type and D2-type DA receptor binding [1]	receptor action in normal rats (D2 receptor)
–	COc1ccc2c(c1OC)CN1CCc3cc4c(cc3C1C2)OCO4 (stereo not drawn) [THB, tetrahydroberberine]	equipotent	–
acts on D1 receptors as an agonist	COc1cc2c(cc1O)[C@@H]1Cc3ccc(O)c(OC)c3CN1CC2 [l-SPD, l-Stepholidine]	–	characteristics of D2 receptor antagonist
